Data on four compounds can be found in publication PMC12396409, “Screening and hit evaluation of a microbial metabolite library against the pathogenic Plasmodium falciparum and Toxoplasma gondii parasites” (International Journal for Parasitology: Drugs and Drug …, 2025).

Like-named read-outs stand apart in the source and are kept apart here.

Series [1] relates to P. falciparum 3D7 parasites. Nature of the series: P. falciparum growth inhibition assay, 2-cycle (120 h treatment), delayed-death screen and dose-response. The following applies: for IC50: 3D7, read-out: IC50, P. falciparum, 120 h dose-response (delayed-death). The series is classed as cell-based, Plasmodium falciparum.
The subject of series [2] is P. falciparum 3D7 parasites. Nature of the series: P. falciparum growth inhibition assay, 1-cycle (72 h treatment), SYBR DNA staining (library screen at 2 μg/mL and dose-response). It counts as cell-based, Plasmodium falciparum. The conditions noted are these: for Screen (P. falciparum): 3D7, 72 h, DD from the 120 h timepoint.
Series [3] deals with T. gondii RH strain (RH-Tub-eYFP) tachyzoites. The series is described as follows: microbe, parasite or virus in culture. The series is classed as cell-based, Toxoplasma gondii. The conditions noted are these: 72 h; for activity in the screen against T. gondii: 2 μg/mL, active = ≥80 % growth inhibition; for percent parasite growth at 2 µg/mL / IC50: Toxoplasma gondii; for percent parasite growth at 2 µg/mL: T. gondii; for IC50: mean ± S.D., n ≥ 3, read-out: IC50 (μM), T. gondii (converted).

The test system of series [4] is human neonatal foreskin fibroblast (NFF). The series is described as follows: Cytotoxicity screen at 5 μg/mL, resazurin dye assay, 96 h. (Resazurin is reduced to fluorescent resorufin, in cell work by metabolically active cells.)
The next series relates to Leishmania. The conditions noted are these: ref Filho et al., 2024; cited from earlier work.
Where [5] appears, read: Plasmodium falciparum, 3D7, 72 h treatment, mean ± S.D., n ≥ 3, read-out: IC50 (μM), P. falciparum.

As a reminder, the IC50 is the midpoint of a concentration-inhibition curve. For the compound `C=C[C@]1(C)C[C@@H](OC(=O)CS[C@@H]2C[C@H]3CC[C@@H](C2)N3C)[C@]2(C)[C@H](C)CC[C@]3(CCC(=O)[C@H]32)[C@@H](C)[C@@H]1O` [Retapamulin, reference compound], the IC50 in series [1] (Plasmodium falciparum) was 106 nM; in series [2] (setting [5]) it was above 1 µM; in series [3] (RH strain), 0.085 µM. The activity at 2 µg/mL was -0.64% in series [1] (Plasmodium falciparum, 3D7, P. falciparum, 120 h, parasite screen 2 μg/mL, % growth, replicate 1, read-out: Pf_120h_%Growth_Rep1); 3.58% in series [1] (Plasmodium falciparum, 3D7, P. falciparum, 120 h, parasite screen 2 μg/mL, % growth, replicate 2, read-out: Pf_120h_%Growth_Rep2); 8.14% in series [2] (Plasmodium falciparum, 3D7, P. falciparum, 72 h, parasite screen 2 μg/mL, % growth, replicate 1, read-out: Pf_72h_%Growth_Rep1); 8.89% in series [2] (Plasmodium falciparum, 3D7, P. falciparum, 72 h, parasite screen 2 μg/mL, % growth, replicate 2, read-out: Pf_72h_%Growth_Rep2). For the same compound, the “activity in the screen against P. falciparum” value in series [2] (2 μg/mL, 72 h, active = ≥80 % growth inhibition) is “active against both P. falciparum and T. gondii”. Also, the “Screen (P. falciparum)” value in series [2] (library screen at 2 μg/mL) is “A, A”. Further, the “activity in the screen against T. gondii” value in series [3] was “active against both P. falciparum and T. gondii”. Besides, the percent parasite growth at 2 µg/mL amounted to 2.49% in series [3] (parasite screen 2 μg/mL, % growth, replicate 1, read-out: Tg_72h_%Growth_Rep1) and 9.45% in series [3] (parasite screen 2 μg/mL, % growth, replicate 2, read-out: Tg_72h_%Growth_Rep2). Also, the “Screen (T. gondii)” value in series [3] (library screen at 2 μg/mL, RH strain) is “A, A”. Further, the selectivity index result in the series with HFF cells was “greater than 100”.

As for `C=C[C@]1(C)C[C@@H](OC(=O)CSC(C)(C)CNC(=O)[C@H](N)C(C)C)[C@]2(C)[C@H](C)CC[C@]3(CCC(=O)[C@H]32)[C@@H](C)[C@@H]1O` [Valnemulin, reference compound], in series [1] (2 μg/mL, criteria: ≥40 % growth at 72 h, ≤20 % growth at 120 h, at least 5-fold), the “delayed-death activity in the 120 h screen against P. falciparum” value is recorded as “meeting two of our three criteria for delayed-death activity”. For the same compound, the “3) Fold change (72 h/120 h)” value in series [1] (P. falciparum, growth at 72 h / growth at 120 h, 2 μg/mL) was 3.7. Further, the half-inhibitory concentration (IC50) in series [1] (Plasmodium falciparum) is 64 nM; in series [2] (setting [5]), above 1 µM; in series [3] (RH strain) it was 0.232 µM. In addition, the activity at 2 µg/mL in series [1] (Plasmodium falciparum, 3D7; P. falciparum, 2 μg/mL, 120 h; read-out: 2) Growth (%) at 120 h) came out at 13.4%; in series [1] (Plasmodium falciparum, 3D7, P. falciparum, 120 h, screen at 2 μg/mL, replicate 1, read-out: Pf_120h_%Growth_Rep1), 15%; in series [1] (Plasmodium falciparum, 3D7, P. falciparum, 120 h, screen at 2 μg/mL, replicate 2, read-out: Pf_120h_%Growth_Rep2) it was 11.8%; in series [2] (Plasmodium falciparum, 3D7; P. falciparum, 2 μg/mL, 72 h; read-out: 1) Growth (%) at 72 h), 50.1%; in series [2] (Plasmodium falciparum, 3D7, P. falciparum, 72 h, screen at 2 μg/mL, replicate 1, read-out: Pf_72h_%Growth_Rep1), 44.3%; in series [2] (Plasmodium falciparum, 3D7, P. falciparum, 72 h, screen at 2 μg/mL, replicate 2, read-out: Pf_72h_%Growth_Rep2) it was 55.9%. Also, the “Screen (P. falciparum)” value in series [2] (library screen at 2 μg/mL) is recorded as “DD^”. Moreover, in series [3], the “activity in the screen against T. gondii” value is reported as “active against T. gondii”. Also, the percent parasite growth at 2 µg/mL in series [3] (screen at 2 μg/mL, replicate 1, read-out: Tg_72h_%Growth_Rep1) is 13.1%; in series [3] (screen at 2 μg/mL, replicate 2, read-out: Tg_72h_%Growth_Rep2), 19.6%. Also, in the series with HFF cells (fibroblasts over T. gondii, for cryptopleurine the parasite is not stated), the selectivity index entry was “greater than 100”.

For the compound `CC(/C=C/C[C@@H](C)/C=C(C)/C=C/[C@@H]1OC(=O)C=C[C@@H]1C)=C\[C@@H](C)C(=O)[C@@H](C)[C@H](O)[C@@H](C)C/C(C)=C/C(=O)O` [leptomycin A], in series [4], the “cytotoxic activity in the screen against fibroblasts” value is recorded as “cytotoxic activity”.

Regarding Beauvericin, the Pf_120h_%Growth_Rep1 in series [1] (library screen at 2 μg/mL, 120 h, % growth, replicate 1) is 4.73%. This compound registered a Pf_120h_%Growth_Rep2 in series [1] (library screen at 2 μg/mL, 120 h, % growth, replicate 2) of 5.37%. Also, the IC50 in series [2] (3D7, 72 h treatment, mean ± S.D., n ≥ 3, read-out: IC50 (μM), P. falciparum) is 0.499 ± 0.029 µM; in series [2] (72 h treatment, read-out: IC50, P. falciparum) it was 0.5 µM. In series [2] (library screen at 2 μg/mL, 72 h, % growth, replicate 1), this compound came in with a Pf_72h_%Growth_Rep1 of 7.31%. In series [2] (library screen at 2 μg/mL, 72 h, % growth, replicate 2), this compound returned a Pf_72h_%Growth_Rep2 of 5.24%. In series [3] (library screen at 2 μg/mL, % growth, replicate 1), this compound returned a Tg_72h_%Growth_Rep1 of 86.72%. Also, the Tg_72h_%Growth_Rep2 in series [3] (library screen at 2 μg/mL, % growth, replicate 2) is given as 89.12%. In the series with Leishmania, the “reported activity in Leishmania” value is “around 1 μM”.
